Assay results from patent US20130216634A1, “Herbal Supplement Prepared From Pelargonium Citronellum” (priority 2011, published 2013).
Read-outs that look alike come from different tables or passages of the source.

Assays:
mouse = conditions: cited from earlier work
adult human = test: LD50, adult human (equivalent / reported); conditions: 143 lb (65 kg) adult human
[1] = tested on: 25 different bacterial species, 20 different Listeria monocytogenes cultivars, three different fungi; conditions: singly or in combination, in the percentages listed by the ISO; cited from earlier work

| Structure (SMILES) | LD50 (mouse; intraperitoneal administration) | LD50 (mouse; intravenous) | LD50 equivalent for adult human (adult human; intraperitoneally injected) | LD50 equivalent for adult human (adult human; intravenously injected) | Bioactivity (antibacterial, antifungal, anti-oxidant) [1] |
| --- | --- | --- | --- | --- | --- |
| CCC(C)CC(C)N (stereo not drawn) [methylhexaneamine, Methylhexaneamine] | 185 mg/kg | 39 mg/kg | 978 milligrams | 206 mg | – |
| CC(C)=CCCC(C)CCO (stereo not drawn) [citronellol] | – | – | – | – | very potent |
| CC(C)=CCC/C(C)=C/CO [geraniol] | – | – | – | – | very potent |
